# In ChEMBL document CHEMBL1201862, “PubChem BioAssay data set” (2004):
#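 Five compound concentrations were applied to cells in 96-well plates for 48 hours; endpoints were derived by simple linear interpolation of the resulting dose-response curve. At the GI50, growth is halved.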 The source made the active and inactive calls. Cut-off read from the data, not from the text of the source: active = GI50 up to about 1.1 µM and inactive = higher.
# Columns and labels:
# Assay in all cases: NCI tumour cell line growth inhibition, 48 h
# [1] = test system: SW-620
# [2] = test system: UO-31
# [3] = test system: COLO 205
# [4] = test system: LOX IMVI
# [5] = test system: U-251
# [6] = test system: RPMI-8226
# [7] = test system: MDA-N
# [8] = test system: UACC-257
# [9] = test system: OVCAR-3
# [10] = test system: SNB-19
# [11] = test system: NCI/ADR-RES
# [12] = test system: IGROV-1
# [13] = test system: SN12C
# [14] = test system: HCT-116
# [15] = test system: PC-3
# [16] = test system: DU-145
# [17] = test system: OVCAR-5
# [18] = test system: SNB-75
# [19] = test system: HCT-15
# [20] = test system: M14
# [21] = test system: SK-MEL-5
# [22] = test system: A498
# [23] = test system: SF-295
# [24] = test system: CCRF-CEM
# [25] = test system: 786-0
# [26] = test system: HT-29
# [27] = test system: MDA-MB-231
# [28] = test system: MOLT-4
# [29] = test system: UACC-62
# [30] = test system: SK-MEL-2
# [31] = test system: NCI-H226
# [32] = test system: HOP-62
# [33] = test system: OVCAR-8
# [34] = test system: HL-60
# [35] = test system: TK-10
# [36] = test system: Malme-3M
# [37] = test system: MDA-MB-435
# [38] = test system: ACHN
# [39] = test system: EKVX
# [40] = test system: BT-549
# [41] = test system: SF-539
# [42] = test system: SK-MEL-28
# [43] = test system: OVCAR-4
# [44] = test system: NCI-H460
# [45] = test system: SR
# [46] = test system: A549
# [47] = test system: HCC 2998
# [48] = test system: NCI-H522
# [49] = test system: NCI-H23
# [50] = test system: KM12
# [51] = test system: CAKI-1
# [52] = test system: Hs-578T
# [53] = test system: HOP-92
# [54] = test system: RXF 393
# [55] = test system: SK-OV-3
# [56] = test system: SF-268
# [57] = test system: MCF7
# [58] = test system: K562
# [59] = test system: T47D
smiles,measurement,setting,value
CCN(CC)c1ccc(/C=C/C(=O)c2cc(C(C)(C)C)c(O)c(C(C)(C)C)c2)cc1,GI50,[1],4.84 µM (inactive)
same,GI50,[2],17.6 µM (inactive)
same,GI50,[3],4.62 µM (inactive)
same,GI50,[4],5.78 µM (inactive)
same,GI50,[5],3.3 µM (inactive)
same,GI50,[6],4.94 µM (inactive)
same,GI50,[7],3.14 µM (inactive)
same,GI50,[8],6.85 µM (inactive)
same,GI50,[9],10.2 µM (inactive)
same,GI50,[10],38 µM (inactive)
same,GI50,[11],4.38 µM (inactive)
same,GI50,[12],64 µM (inactive)
same,GI50,[13],27.4 µM (inactive)
same,GI50,[14],3.21 µM (inactive)
same,GI50,[15],9.18 µM (inactive)
same,GI50,[16],29 µM (inactive)
same,GI50,[17],5.26 µM (inactive)
same,GI50,[18],4.9 µM (inactive)
same,GI50,[19],21.1 µM
same,GI50,[20],21.2 µM (inactive)
same,GI50,[21],16.3 µM (inactive)
same,GI50,[22],31.3 µM (inactive)
same,GI50,[23],2.6 µM (inactive)
same,GI50,[24],3.85 µM (inactive)
same,GI50,[25],14.2 µM (inactive)
same,GI50,[26],2.71 µM (inactive)
same,GI50,[27],9.2 µM (inactive)
same,GI50,[28],4.49 µM (inactive)
same,GI50,[29],6.81 µM (inactive)
same,GI50,[30],6.76 µM (inactive)
same,GI50,[31],39.3 µM (inactive)
same,GI50,[32],27 µM (inactive)
same,GI50,[33],15.9 µM (inactive)
same,GI50,[34],3.37 µM (inactive)
same,GI50,[35],5.71 µM (inactive)
same,GI50,[36],> 100 µM (inactive)
same,GI50,[37],3.21 µM (inactive)
same,GI50,[38],> 42.6 µM (inactive)
same,GI50,[39],4.13 µM (inactive)
same,GI50,[40],8.24 µM (inactive)
same,GI50,[41],3.19 µM (inactive)
same,GI50,[42],> 50.7 µM (inactive)
same,GI50,[43],6.76 µM (inactive)
same,GI50,[44],14.9 µM (inactive)
same,GI50,[45],2.8 µM (inactive)
same,GI50,[46],19.6 µM (inactive)
same,GI50,[47],16.3 µM (inactive)
same,GI50,[48],3.07 µM (inactive)
same,GI50,[49],9.77 µM (inactive)
same,GI50,[50],2.99 µM (inactive)
same,GI50,[51],5.14 µM (inactive)
same,GI50,[52],5.93 µM (inactive)
same,GI50,[53],> 100 µM (inactive)
same,GI50,[54],2.7 µM (inactive)
same,GI50,[55],28.2 µM (inactive)
same,GI50,[56],7.45 µM (inactive)
same,GI50,[57],3.64 µM (inactive)
same,GI50,[58],8.45 µM (inactive)
O=C(O)c1ccccc1SCc1cccc2c(=O)c3ccc(Cl)cc3oc12,GI50,[1],> 50 µM (inactive)
same,GI50,[2],> 50 µM (inactive)
same,GI50,[3],> 50 µM (inactive)
same,GI50,[4],> 50 µM (inactive)
same,GI50,[5],17.5 µM (inactive)
same,GI50,[6],> 50 µM (inactive)
same,GI50,[59],> 50 µM (inactive)
same,GI50,[7],> 50 µM (inactive)
same,GI50,[8],> 50 µM (inactive)
same,GI50,[9],> 50 µM (inactive)
same,GI50,[11],> 50 µM (inactive)
same,GI50,[12],49.5 µM (inactive)
same,GI50,[13],> 50 µM (inactive)
same,GI50,[14],36.1 µM (inactive)
same,GI50,[15],26.8 µM (inactive)
same,GI50,[17],> 50 µM (inactive)
same,GI50,[18],15.6 µM (inactive)
same,GI50,[19],> 50 µM
same,GI50,[20],> 50 µM (inactive)
same,GI50,[21],> 50 µM (inactive)
same,GI50,[22],> 50 µM (inactive)
same,GI50,[23],20.2 µM (inactive)
same,GI50,[24],> 50 µM (inactive)
same,GI50,[25],25.3 µM (inactive)
same,GI50,[26],> 50 µM (inactive)
same,GI50,[27],> 50 µM (inactive)
same,GI50,[28],> 50 µM (inactive)
same,GI50,[29],21.4 µM (inactive)
same,GI50,[30],46.9 µM (inactive)
same,GI50,[31],> 50 µM (inactive)
same,GI50,[32],12.9 µM (inactive)
same,GI50,[33],> 50 µM (inactive)
same,GI50,[34],11 µM (inactive)
same,GI50,[35],29.8 µM (inactive)
same,GI50,[36],10.7 µM (inactive)
same,GI50,[37],> 50 µM (inactive)
same,GI50,[38],32.4 µM (inactive)
same,GI50,[39],> 50 µM (inactive)
same,GI50,[40],48.8 µM (inactive)
same,GI50,[41],19.5 µM (inactive)
same,GI50,[42],> 50 µM (inactive)
same,GI50,[43],41.5 µM (inactive)
same,GI50,[45],39 µM (inactive)
same,GI50,[46],> 50 µM (inactive)
same,GI50,[47],> 50 µM (inactive)
same,GI50,[48],29.2 µM (inactive)
same,GI50,[49],35.3 µM (inactive)
same,GI50,[50],> 50 µM (inactive)
same,GI50,[51],> 50 µM (inactive)
same,GI50,[55],> 50 µM (inactive)
same,GI50,[57],> 50 µM (inactive)
same,GI50,[58],27.7 µM (inactive)
